In ChEMBL document CHEMBL1201862, “PubChem BioAssay data set” (2004):
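These data come from cells grown in 96-well plates and exposed to compound for 48 hours at five concentrations. GI50 marks 50% less growth.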 Active and inactive are the calls of the source. Rule as the data show it: active = GI50 up to about 1.1 µM and inactive = higher.

Experiments:
Assay in all cases: inhibition of tumour cell growth, NCI panel, 48 h
A549 = system: A549
CAKI-1 = system: CAKI-1
CCRF-CEM = system: CCRF-CEM
EKVX = system: EKVX
HCC 2998 = system: HCC 2998
HL-60 = system: HL-60
MDA-MB-435 = system: MDA-MB-435
MDA-N = system: MDA-N
Malme-3M = system: Malme-3M
NCI-H460 = system: NCI-H460
NCI-H522 = system: NCI-H522
OVCAR-5 = system: OVCAR-5
OVCAR-8 = system: OVCAR-8
SF-539 = system: SF-539
SK-MEL-2 = system: SK-MEL-2
SN12C = system: SN12C
T47D = system: T47D
U-251 = system: U-251
SNB-75 = system: SNB-75

Measured: GI50

O=c1c(Cc2ccc(Cl)cc2)nnc2sc(-c3ccc(-c4ccc(Cl)cc4Cl)o3)nn12
inactive: A549 80.5 µM | CAKI-1 73.5 µM | CCRF-CEM 61.7 µM | EKVX 29.4 µM | HCC 2998 49.5 µM | HL-60 23.2 µM | MDA-MB-435 71 µM | MDA-N 48 µM | Malme-3M > 100 µM | NCI-H460 59.6 µM | NCI-H522 52.8 µM | OVCAR-5 94.8 µM | OVCAR-8 48.6 µM | SF-539 85.7 µM | SK-MEL-2 36.7 µM | SN12C 44.6 µM | T47D 74.5 µM | U-251 31 µM

CC1=CC(=O)/C(=C/N2CCNC2=S)C(=O)O1
inactive: A549 > 100 µM | CAKI-1 > 100 µM | CCRF-CEM > 100 µM | EKVX > 100 µM | HCC 2998 > 100 µM | HL-60 > 100 µM | MDA-MB-435 > 100 µM | MDA-N > 100 µM | NCI-H460 > 100 µM | NCI-H522 > 100 µM | OVCAR-5 > 100 µM | OVCAR-8 > 100 µM | SF-539 > 100 µM | SK-MEL-2 > 100 µM | SN12C > 100 µM | SNB-75 89.7 µM | T47D > 100 µM | U-251 > 100 µM

CC(C)(C)C1=C(Br)C(Br)(C(C)(C)C)OP1(=O)c1ccccc1 (configuration not stated)
inactive: A549 > 100 µM | CAKI-1 > 100 µM | EKVX > 100 µM | HCC 2998 > 100 µM | HL-60 > 100 µM | MDA-MB-435 > 100 µM | MDA-N > 100 µM | Malme-3M > 100 µM | NCI-H460 > 100 µM | NCI-H522 > 100 µM | OVCAR-5 > 100 µM | OVCAR-8 > 100 µM | SF-539 > 100 µM | SK-MEL-2 > 100 µM | SN12C > 100 µM | SNB-75 > 100 µM | T47D 31.5 µM | U-251 > 100 µM

CC1C[C@]2(C)C(=O)N(c3ccccc3)C(=N)[C@@H]2N(C)c2ccccc21 (some centres not stated)
inactive: A549 > 100 µM | CAKI-1 > 100 µM | CCRF-CEM > 100 µM | EKVX > 100 µM | HCC 2998 > 100 µM | HL-60 > 100 µM | MDA-MB-435 > 100 µM | MDA-N > 100 µM | Malme-3M > 100 µM | NCI-H460 > 100 µM | NCI-H522 > 100 µM | OVCAR-5 > 100 µM | OVCAR-8 > 100 µM | SF-539 > 100 µM | SK-MEL-2 > 100 µM | SN12C 10.8 µM | SNB-75 79.3 µM | T47D > 100 µM

CC(CC(=O)O)(CC(=O)O)c1ccccc1
inactive: A549 > 100 µM | CAKI-1 > 100 µM | CCRF-CEM > 100 µM | EKVX > 100 µM | HCC 2998 > 100 µM | HL-60 > 100 µM | MDA-MB-435 > 100 µM | MDA-N > 100 µM | Malme-3M > 100 µM | NCI-H460 > 100 µM | NCI-H522 > 100 µM | OVCAR-5 > 100 µM | OVCAR-8 > 100 µM | SK-MEL-2 > 100 µM | SN12C > 100 µM | SNB-75 > 100 µM | T47D > 100 µM | U-251 > 100 µM

CCN(CC)C(=O)N[C@@H](Cc1ccccc1)C(=O)NC
inactive: A549 > 100 µM | CAKI-1 > 100 µM | CCRF-CEM > 100 µM | EKVX > 100 µM | HCC 2998 > 100 µM | HL-60 > 100 µM | MDA-MB-435 > 100 µM | MDA-N > 100 µM | Malme-3M > 100 µM | NCI-H460 > 100 µM | NCI-H522 > 100 µM | OVCAR-5 > 100 µM | OVCAR-8 > 100 µM | SK-MEL-2 > 100 µM | SN12C > 100 µM | SNB-75 > 100 µM | T47D > 100 µM | U-251 > 100 µM

C=C1C(=O)C([Si](C)(C)C)=C2C=C(C)C3(CC3)C12C (configuration not stated)
inactive: A549 24.2 µM | CAKI-1 35.6 µM | CCRF-CEM 1.19 µM | EKVX 4.69 µM | HCC 2998 38.9 µM | HL-60 7.08 µM | MDA-MB-435 12.9 µM | MDA-N 22.7 µM | Malme-3M 14.7 µM | NCI-H460 47.6 µM | NCI-H522 14 µM | OVCAR-5 > 100 µM | OVCAR-8 57.4 µM | SK-MEL-2 15.6 µM | SN12C 40.9 µM | T47D > 100 µM | U-251 28.2 µM

COc1c2c(c3c(c1OC)c(=O)c1ccccc1n3C)OCO2
inactive: A549 > 100 µM | CAKI-1 > 100 µM | CCRF-CEM > 100 µM | EKVX 45.2 µM | HCC 2998 > 100 µM | HL-60 > 100 µM | MDA-MB-435 > 100 µM | MDA-N > 100 µM | NCI-H460 36.1 µM | NCI-H522 > 100 µM | OVCAR-5 > 100 µM | OVCAR-8 > 100 µM | SF-539 > 100 µM | SK-MEL-2 > 100 µM | SN12C > 100 µM | SNB-75 > 100 µM | T47D > 100 µM | U-251 > 100 µM

O=C(Nc1ccccc1F)c1cc2ccc(O)cc2o/c1=N\c1ccccc1F
inactive: A549 2.31 µM | CAKI-1 1.98 µM | CCRF-CEM 1.5 µM | EKVX 2.75 µM | HCC 2998 2.99 µM | HL-60 2.09 µM | MDA-MB-435 2.03 µM | MDA-N 2.29 µM | Malme-3M 1.73 µM | NCI-H460 2.25 µM | NCI-H522 1.44 µM | OVCAR-5 4.5 µM | OVCAR-8 1.77 µM | SF-539 3.33 µM | SK-MEL-2 1.84 µM | T47D 1.96 µM | U-251 1.93 µM

CCC(=O)NC(NNS(=O)(=O)c1ccc(C)cc1)(C(F)(F)F)C(F)(F)F
inactive: A549 35.7 µM | CAKI-1 > 100 µM | CCRF-CEM 63.1 µM | EKVX > 100 µM | HCC 2998 > 10 µM | HL-60 46.6 µM | MDA-MB-435 18.7 µM | MDA-N 18.5 µM | Malme-3M 59.4 µM | NCI-H460 33.5 µM | NCI-H522 30.7 µM | OVCAR-5 > 100 µM | OVCAR-8 44.9 µM | SF-539 54 µM | SK-MEL-2 > 100 µM | SNB-75 51.9 µM | T47D 96.8 µM | U-251 > 10 µM

COc1ccc(N2C(=O)/C(=C\c3cccc(Oc4ccccc4)c3)SC2c2ccccc2)cc1 (configuration not stated)
inactive: A549 > 100 µM | CAKI-1 > 100 µM | CCRF-CEM 5.3 µM | EKVX > 100 µM | HCC 2998 > 100 µM | HL-60 20.5 µM | MDA-MB-435 30.5 µM | MDA-N 29.3 µM | Malme-3M 34.6 µM | NCI-H460 > 100 µM | NCI-H522 8.24 µM | OVCAR-5 > 100 µM | OVCAR-8 28.6 µM | SF-539 24.5 µM | SK-MEL-2 > 100 µM | SN12C > 100 µM | T47D 37.5 µM | U-251 26.1 µM

Oc1c(Cl)c(Cl)c(Cl)c(Cl)c1Cl [PENTACHLOROPHENOL]
inactive: A549 23.1 µM | CAKI-1 18.3 µM | CCRF-CEM 21.3 µM | EKVX 23.4 µM | HCC 2998 > 100 µM | HL-60 17.5 µM | MDA-MB-435 20.7 µM | MDA-N 23.2 µM | NCI-H460 > 100 µM | NCI-H522 24 µM | OVCAR-5 18.4 µM | OVCAR-8 20.8 µM | SF-539 21.5 µM | SK-MEL-2 16 µM | SN12C 19.1 µM | SNB-75 22.9 µM | T47D 20 µM | U-251 16.1 µM

O/N=C1\CSc2ccccc2C1
inactive: A549 > 100 µM | CAKI-1 90.2 µM | CCRF-CEM > 100 µM | EKVX 30.6 µM | HCC 2998 > 100 µM | HL-60 5.33 µM | MDA-MB-435 > 100 µM | MDA-N > 100 µM | Malme-3M > 100 µM | NCI-H460 > 100 µM | NCI-H522 > 100 µM | OVCAR-5 > 100 µM | OVCAR-8 > 100 µM | SF-539 > 100 µM | SK-MEL-2 > 100 µM | SN12C > 100 µM | T47D > 100 µM | U-251 > 100 µM

O=C(Nc1ccccc1)OC1OC(COC(=O)c2ccccc2)C(OC(=O)c2ccccc2)C1OS(=O)(=O)c1ccc([N+](=O)[O-])cc1 (configuration not stated)
inactive: A549 > 100 µM | CAKI-1 > 100 µM | CCRF-CEM > 100 µM | EKVX 63.8 µM | HCC 2998 > 100 µM | HL-60 86.7 µM | MDA-MB-435 > 100 µM | MDA-N > 100 µM | Malme-3M > 100 µM | NCI-H460 > 100 µM | NCI-H522 40.3 µM | OVCAR-5 > 100 µM | OVCAR-8 > 100 µM | SF-539 > 100 µM | SK-MEL-2 > 100 µM | SN12C > 100 µM | T47D > 100 µM | U-251 > 100 µM

OC1CCCCCCCCCCC1SCCCCl (configuration not stated)
inactive: A549 > 100 µM | CAKI-1 > 100 µM | EKVX > 100 µM | HCC 2998 > 100 µM | HL-60 > 100 µM | MDA-MB-435 > 100 µM | MDA-N > 100 µM | Malme-3M 81.8 µM | NCI-H460 > 100 µM | NCI-H522 > 100 µM | OVCAR-5 > 100 µM | OVCAR-8 > 100 µM | SF-539 > 100 µM | SK-MEL-2 > 100 µM | SN12C > 100 µM | T47D > 100 µM | U-251 > 100 µM
